Legend:
Type in all cases: cell-based, human
Malt1 [1] = test: NF-κB DNA binding in nuclear extracts of stimulated DCs (TransAM NF-κB family kit); details: curdlan-stimulated DCs; 75 µM z-VRPR-FMK, 2 h pre-incubation
Description: (§1) Cells, stimulation, inhibition and RNA interference. This study was performed in accordance with the ethical guidelines of the Academic Medical Center. Immature DCs (iDC, day 6 and 7) were generated as described previously. In short, human blood monocytes were isolated from buffy coats by a Ficoll and a Percoll gradient and or CD14 selection by magnetic beads. Monocytes were differentiated into immature DCs in the presence of IL-4 and GM-CSFAt day 6 the phenotype of the cultured DCs was confirmed by flow cytometric analysis. 100.000 DCs were stimulated with 10 µg/ml curdlan (Sigma), heat-killed Candida spp. (multiplicity of infection (MOI) 10) and 10 ng/ml LPS from Salmonella typhosa (Sigma) in 100-150 µl medium. Dectin-2 triggering was induced by pre-incubating DCs for 2 h at room temperature with 5 µg/ml anti-dectin-2 (MAB3114; R&D Systems), followed by cross-linking on goat-anti-mouse IgG (115-006-0710; Jackson)-coated culture plates. Cells were pre-incubated with blocking antibodies or inhibitor for 2 h with 20 µg/ml anti-dectin-1 (MAB1859; R&D Systems), 20 µg/ml anti-dectin-2 (MAB3114; R&D Systems) or 75 µM z-VRPR-FMK (Malt1 inhibitor [22]; Alexis). […]
NF-κB DNA binding. Nuclear extracts of DCs were prepared using NucBuster protein extraction kit (Novagen) and NF-κB DNA binding determined using TransAM NF-κB family kit (Active Motif).

Malt1 [2] = test: Quantitative real-time PCR for cytokine mRNAs in stimulated DCs; details: curdlan-stimulated DCs; 75 µM z-VRPR-FMK
Description: (§2) Cells, stimulation, inhibition and RNA interference. This study was performed in accordance with the ethical guidelines of the Academic Medical Center. Immature DCs (iDC, day 6 and 7) were generated as described previously. In short, human blood monocytes were isolated from buffy coats by a Ficoll and a Percoll gradient and or CD14 selection by magnetic beads. Monocytes were differentiated into immature DCs in the presence of IL-4 and GM-CSFAt day 6 the phenotype of the cultured DCs was confirmed by flow cytometric analysis. 100.000 DCs were stimulated with 10 µg/ml curdlan (Sigma), heat-killed Candida spp. (multiplicity of infection (MOI) 10) and 10 ng/ml LPS from Salmonella typhosa (Sigma) in 100-150 µl medium. Dectin-2 triggering was induced by pre-incubating DCs for 2 h at room temperature with 5 µg/ml anti-dectin-2 (MAB3114; R&D Systems), followed by cross-linking on goat-anti-mouse IgG (115-006-0710; Jackson)-coated culture plates. Cells were pre-incubated with blocking antibodies or inhibitor for 2 h with 20 µg/ml anti-dectin-1 (MAB1859; R&D Systems), 20 µg/ml anti-dectin-2 (MAB3114; R&D Systems) or 75 µM z-VRPR-FMK (Malt1 inhibitor [22]; Alexis). DCs were transfected with 25 nM siRNA (SEQ ID NO:5-8) using transfection reagens DF4 (Dharmacon), and used for experiments 72 h after transfection. 'SMARTpool' siRNAs used were: Syk (M-003176-03), CARD9 (M-004400-01), Bcl10 (M-004381-02), Malt1 (M-005936-02), c-Rel (M-004768-01) and non-targeting siRNA (D-001206-13) as a control (Dharmacon). […] PCR amplification was performed with the SYBR green method in an ABI 7900HT sequence detection system (Applied Biosystems).Silencing of expression was verified by real-time PCR and flow cytometry (not shown).
Quantitative real-time PCR. mRNA isolation, cDNA synthesis and PCR amplification with the SYBR green method in an ABI 7500 Fast PCR detection system (Applied Biosystems) were performed as described. Standard conditions according to manufacturer's instructions were used. Specific primers were designed using Primer Express 2.0 (Applied Biosystems; Supplementary Table 1). The Ct value is defined as the number of PCR cycles where the fluorescence signal exceeds the detection threshold value. For each sample, the normalized amount of target mRNA was calculated from the obtained Ct values for both target and GAPDH mRNA with Nt = 2^Ct(GAPDH)-Ct(target) The relative mRNA expression was obtained by setting Nt in curdlan-or LPS-stimulated samples at 1 within one experiment and for each donor.

Malt1 [3] = test: Cytokine production by ELISA in supernatants of stimulated DCs; details: 75 µM z-VRPR-FMK
Description: as §2
Cytokine production. Cell culture supernatants were harvested after 28 h of stimulation and concentrations of IL-1β, IL-23, IL-6 (Invitrogen) and IL-12p70 (eBioscience) were determined by ELISA.

Malt1 [4] = test: Immunofluorescence staining of nuclear translocation of NF-κB subunits in DCs; details: curdlan-stimulated DCs; 75 µM z-VRPR-FMK; data not shown
Description: as §1

Malt1 [5] = test: Th17 polarization assay (primed DCs co-cultured with memory CD4+ T cells); details: DCs pre-incubated with z-VRPR-FMK
Description: Th17 polarization assay. Memory CD4^+ T cells were isolated as described previously. Human PBMC were isolated from heparinized human peripheral blood by density gradient centrifugation on Lymphoprep (Nycomed), and PBMC were subsequently seperated in monocytes and PBL by density gradient centrifugation on Percoll (Pharmacia). Memory CD4^+ T cells were isolated with CD45R0^+-PE (Dakopatts) and anti-PE-beads (MACS). iDCs were preincubated for 2 h with inhibitors, activated for 16 h with curdlan or heat-killed Candida spp. and subsequently co-cultured with memory CD4^+ T cells as described (20,000 T cells/2000 DCs in the presence of 10 pg/ml Staphylococcus aureus enterotoxin B (Sigma). After 5 days of co-culture, supernatants were harvested and analyzed for IL-17 production by ELISA (Biosource). Cells were further cultured in the presence of 10 U/ml IL-2 (Chiron) and resting cells were restimulated after 12 days with 100 ng/ml PMA (Sigma) and 1 µg/ml ionomycin (Sigma) for 6 h, the last 5 h in the presence of 10 µg/ml brefeldin A (Sigma), and analyzed for intracellular cytokine expression by staining with biotinylated mouse anti-IL-17 (ebio64DE; eBioscience), followed by incubation with streptavidin-PE (BD Pharmingen) and FITC-conjugated mouse anti-IFN-γ (25723.11; BD).

[6] = more strongly than dectin-1 inhibition
[7] = DCs after C. albicans stimulation
[8] = DCs stimulated with C. albicans strain CBS8781 and CBS2712
[9] = DCs stimulated with C. lusitaniae and C. nivariensis

With “z-Valine-Arginine-Proline-DL-Arginine-FMK [z-VRPR-FMK]” as the substance, how does the “activation of c-Rel” value (Malt1 [1]) read?
Its value is “completely abolished”.

And the “activation of the other NF-κB subunits” value (Malt1 [1])?
Its value is “without affecting”.

And the “IL-1β mRNA levels” value (Malt1 [2])?
The value was “markedly reduced”.

And the “IL-6 mRNA production” value (Malt1 [2])?
The value was “slightly enhanced”.

What about the “IL-12p35 mRNA production” value (Malt1 [2]) of the same substance?
Its value is “slightly enhanced”.

And the “IL-12p40 mRNA production” value (Malt1 [2])?
The value was “neither dependent on Malt1 expression nor activation”.

What about the “IL-23p19 mRNA levels” value (Malt1 [2]) of the same substance?
The value was “markedly reduced”.

What about the “C. albicans CBS2712-induced IL-1β expression” value (Malt1 [3]; [6]) of the same substance?
Its value is “decreased”.

What about the “C. albicans CBS2712-induced IL-23 expression” value (Malt1 [3]; [6]) of the same substance?
Its value is “decreased”.

And the IL-12p70 production (Malt1 [3]; [7])?
Its IL-12p70 production is “unaffected”.

And the “expression of IL-6” value (Malt1 [3]; [7])?
Its value is “slightly upregulated”.

And the “expression of IL-1β: requirement for Malt1 activation” value (Malt1 [3]; [8])?
Its value is “required”.

And the “expression of IL-23: requirement for Malt1 activation” value (Malt1 [3]; [8])?
Its value is “required”.

What about the IL-1β production (Malt1 [3]; [9]) of the same substance?
The IL-1β production was “largely dependent on Malt1 protease activity”.

And the IL-6 expression (Malt1 [3]; [9])?
Its IL-6 expression is “slightly enhanced”.

What about the IL-12p70 (Malt1 [3]; [9]) of the same substance?
Its IL-12p70 is “unaffected”.

What about the IL-23 production (Malt1 [3]; [9]) of the same substance?
Its IL-23 production is “largely dependent on Malt1 protease activity”.

What about the IL-1β protein expression (Malt1 [3]; curdlan-stimulated DCs, 28 h) of the same substance?
The IL-1β protein expression was “severely reduced”.

And the IL-6 expression (Malt1 [3]; curdlan-stimulated DCs, 28 h)?
The IL-6 expression was “only slightly enhancing”.

What about the IL-12p70 expression (Malt1 [3]; curdlan-stimulated DCs, 28 h) of the same substance?
Its IL-12p70 expression is “without affecting”.

What about the IL-23 protein expression (Malt1 [3]; curdlan-stimulated DCs, 28 h) of the same substance?
The IL-23 protein expression was “severely reduced”.

What about the “nuclear translocation of c-Rel” value (Malt1 [4]) of the same substance?
The value was “specifically interferes”.

And the “ability of DCs primed by the different Candida spp. to promote IL-17 expression in CD4+ T cells” value (Malt1 [5]; C. albicans CBS8781, CBS2712, C. lusitaniae, C. nivariensis, intracellular IL-17 day 12)?
Its value is “completely blocked”.

And the “capacity of curdlan-primed DCs to induce IL-17 expression in CD4+ T cells” value (Malt1 [5]; IL-17 ELISA day 5, intracellular IL-17 day 12)?
Its value is “markedly reduced”.
